According to patent US12398160B2, “Cot modulators and methods of use thereof” (Gilead Sciences, Inc., priority 2019, dated 2025):
Each block holds one compound with its values, some of them ahead of it.

Assay: In vivo dog pharmacokinetics
Conditions: for AUC0-72 h: beagle dogs N=3
[1] = plasma level of the labelled analyte after oral dose of Compound B (9.7 mg-eq/kg), powder in capsule

- AUC0-72 h [1]: BLQ
SMILES: Cn1ccc2c([C@@H](c3cn(C45CC(C4)C5)nn3)N(C(=O)OCOP(=O)(O)O)c3cc(Cl)c4ncc(C#N)c(NCC(C)(C)C)c4c3)cccc2c1=O [Compound B]

- AUC0-72 h (plasma level of the labelled analyte after oral dose of Compound C (3 mg-eq/kg), 3 mg/mL solution): BLQ
SMILES: Cn1ccc2c([C@@H](c3cn(C45CC(C4)C5)nn3)N(C(=O)OCCCOP(=O)(O)O)c3cc(Cl)c4ncc(C#N)c(NCC(C)(C)C)c4c3)cccc2c1=O [Compound C]
- In vivo conversion after dosing (beagle dogs, Compound C solution formulation, 72 hour period): converted in vivo to both Compound D and Compound A in measurable amounts

- AUC0-72 h [1]: BLQ
SMILES: Cn1ccc2c([C@@H](c3cn(C45CC(C4)C5)nn3)N(C(=O)OCO)c3cc(Cl)c4ncc(C#N)c(NCC(C)(C)C)c4c3)cccc2c1=O [Intermediate A]

- AUC0-72 h for Compound A in plasma, dosing with Compound B compared with equivalent dose of Compound A (beagle dogs, powder in capsule, after dosing with Compound B versus Compound A): higher
SMILES: Cn1ccc2c([C@H](Nc3cc(Cl)c4ncc(C#N)c(NCC(C)(C)C)c4c3)c3cn(C45CC(C4)C5)nn3)cccc2c1=O [Compound A]
